Patent publication US8128963B2, “Methods for treating ischemic disorders using carbon monoxide” (The Trustees of Columbia University in the City Of New York, priority 1999, dated 2012)

How the values were obtained:
[1] = test system: hypoxic human umbillical vein ECs; test: vWF release from hypoxic HUVECs, NO/cGMP pathway; type: cell-based; conditions: hypoxia pO2<20 Torr 4 hours; SIN-1 0.1 mM, 8-Bromo-cGMP 10 nM
Experimental: (§1) Hypoxia or free radicals induce P-selectin (PS) translocation to the endothelial cell (EC) surface, where it participates in neutrophil (PMN) adhesion during reperfusion. To explore a mechanism whereby nitrovasodilators may attenuate postischemic leukosequestration, we tested whether stimulating the NO/cGMP pathway could attenuate surface PS expression in hypoxic human umbillical vein ECs. […] Under similar conditions, addition of the NO donor 3-morpholino sydnonimine (SIN-1, 0.1 mM) or the cGMP analog 8-Bromo-cGMP (cGMP, 10 nM) caused a reduction in vWF release; Control vWF, 11±0.4 mU/mL; SIN-1, 9.1±0.3 mU/mL; cGMP, 9.7±0.2 mU/mL; p<0.005 for both SIN-1 or cGMP vs Control.

[2] = test system: hypoxic HUVECs; test: Immunofluorescent adherence assay, HL60 binding to hypoxic HUVECs; type: cell-based, human
Experimental: as §1

[3] = test system: P-selectin; test: Surface P-selectin expression on hypoxic HUVECs (radiolabeled anti-PS antibody binding); type: cell-based, human
Experimental: as §1

[4] = test system: intracellular calcium concentration [Cai]; test: Intracellular calcium by fura-2 fluorescence in hypoxic ECs; type: cell-based, human
Experimental: as §1

[5] = test system: P-selectin; test: EC P-selectin expression by specific binding of 125I anti-P-selectin antibody; type: cell-based, human; conditions: cycloheximide 10 μg/mL given at onset of H, 4 hour time point
Experimental: (§2) Measurement of Weibel-Palade body exocytosis: ECs were plated into 24 well plates, rinsed 3 times with Hank's balanced salt solution, and then exposed to hypoxia or to normoxia for the indicated durations. For experiments in which vWF was measured, cells were maintained in serum-free medium. All other EC experiments were performed in the EC growth medium described above. […] EC P-selectin expression was determined by measuring the specific binding of a murine monoclonal anti-human P-selectin antibody (WAPS 12.2 clone, Endogen, Cambridge, Mass.; this is an IgGl which recognizes a calcium sensitive epitope and blocks P-selectin dependent neutrophil adhesion. Antibody was radiolabelled with ^125I by the lactoperoxidase method (19) using Enzymobeads (Bio-Rad, Hercules, Calif.), stored at 4° C. and used within one week of labelling. Binding assays were performed on HUVECs plated on 96 well plates, in which fresh M199 with 0.1% bovine serum albumin (Sigma, St. Louis, Mo.) was added immediately prior to each experiment. […] After binding for 1 hour at 37° C., monolayers were washed 4 times with HBSS/A, and bound antibody was eluted with 1% triton X-100 in PBS (200 μL/well) and counted. […] Following 4 hours of normoxic exposure, trichloroacetic acid-precipitable material was collected and counted.

[6] = test system: ECs; test: Protein synthesis: 35S-methionine/cysteine in trichloroacetic acid-precipitable material; type: cell-based; conditions: Homo sapiens; 10 μg/mL, 4 hrs
Experimental: as §2

[7] = test system: Human umbilical vein ECs; test: vWF release from hypoxic endothelial cells (ELISA); type: cell-based; conditions: cycloheximide 10 μg/ml added at start of hypoxic period, 4 hours of hypoxia
Experimental: Endothelial cell culture and exposure of cells to H or H/R. Human umbilical vein ECs were prepared from umbilical cords and grown in culture by the method of Jaffe (16) as modified by Thornton (17). Experiments utilized confluent ECs (passages 1-4) grown in Medium 199 supplemented with fetal bovine serum (15%; Gemini, Calabasas, Calif.), human serum (5%; Gemini), endothelial growth supplement (Sigma, St. Louis, Mo.), heparin (90 μg/ml; Sigma) and antibiotics, as described (17). When ECs achieved confluence, experiments were performed by placing cultures in an environmental chamber (Coy Laboratory Products, Ann Arbor, Mich.) which provided a controlled temperature (37° C.) and atmosphere with the indicated amount of oxygen, carbon dioxide (5%) and the balance made up of nitrogen. Use of this chamber for cell culture experiments has been described previously (15,18). During exposure of ECs to hypoxia (for a maximum of 16 hours), the oxygen tension in the culture medium was 14-18 torr and there was no change in the medium pH. Reoxygenation was performed by placing ECs in an ambient atmosphere containing carbon dioxide (5%) at 37° C.
Measurement of Weibel-Palade body exocytosis: ECs were plated into 24 well plates, rinsed 3 times with Hank's balanced salt solution, and then exposed to hypoxia or to normoxia for the indicated durations. For experiments in which vWF was measured, cells were maintained in serum-free medium. All other EC experiments were performed in the EC growth medium described above. For measurement of vWF, 200 μL aliquots of culture supernatant was removed at the indicated times, and a commercially available ELISA (American Diagnostica, Greenwich, Conn.), based on a polyclonal goat anti-human vWF antibody, was performed on duplicate specimens, with a standard curve generated using purified human vWF antigen supplied by the same vendor. EC P-selectin expression was determined by measuring the specific binding of a murine monoclonal anti-human P-selectin antibody (WAPS 12.2 clone, Endogen, Cambridge, Mass.; this is an IgGl which recognizes a calcium sensitive epitope and blocks P-selectin dependent neutrophil adhesion. Antibody was radiolabelled with ^125I by the lactoperoxidase method (19) using Enzymobeads (Bio-Rad, Hercules, Calif.), stored at 4° C. and used within one week of labelling. Binding assays were performed on HUVECs plated on 96 well plates, in which fresh M199 with 0.1% bovine serum albumin (Sigma, St. Louis, Mo.) was added immediately prior to each experiment. Cells were placed in a humidified environment at 37° C., and exposed to normoxia or H (in the presence or absence of 50 μM probucol, as indicated, Sigma) for the indicated durations. Cell monolayers were fixed for 15 min. with 1% paraformaldehyde^10 (cells exposed to H were fixed while still within the hypoxic environment), visually inspected to ensure that the monolayers remained intact, and washed twice with HBSS containing 0.5% bovine serum albumin (HBSS/A). Monolayers were then exposed to 10^5 cpm of ^125I-labelled anti-P-selectin antibody (WAPS 12.2) in the presence of 200 μg/mL of either unlabelled blocking antibody (WAPS 12.2) or nonblocking anti-P-selectin IgG of the same isotype (anti-GMP-140, AC1.2 clone, Becton-Dickinson, San Jose, Calif.) (20,21). After binding for 1 hour at 37° C., monolayers were washed 4 times with HBSS/A, and bound antibody was eluted with 1% triton X-100 in PBS (200 μL/well) and counted. […]

Row | SMILES | vWF release [1] | decrease of HL60 binding to hypoxic HUVECs vs controls [2] | PS expression in calcium-free medium ([3]; ECs in calcium-free medium) | decrease of surface PS expression vs controls ([3]; hypoxia 4 hours, SIN-1 0.1 mM, 8-Bromo-cGMP 10 nM) | hypoxia-increased intracellular calcium concentration [Cai] [4] | hypoxia-induced endothelial P-selectin expression [5] | inhibition at 10 µg/mL [6] | decrease of hypoxia-induced vWF release [7]
1 | Nc1nc2c(nc(Br)n2[C@@H]2O[C@@H]3COP(=O)(O)O[C@H]3[C@H]2O)c(=O)[nH]1 [cGMP, 8-Bromo-cGMP] | 9.7±0.2 mU/mL | 86% | Neither SIN-1 nor cGMP could further reduce PS expression | 48% | could be blocked | – | – | –
2 | C[C@@H]1C[C@@H]([C@H](O)CC2CC(=O)NC(=O)C2)C(=O)[C@@H](C)C1 [cycloheximide] | – | – | – | – | – | hypoxia still increased endothelial P-selectin expression, albeit at reduced levels | > 85% | 12.5%
